Test results published in PubChem BioAssay AID330 (DTP/NCI, 2004).
Values joined by “and” are separate entries in the source; they are usually repeats but may differ in a detail not shown here. Identical values can stand only once. Inconclusive results and toxic doses are left out.

System: P388 leukemia ip, CD2F1 mice, survival T/C
Experiment: NCI In Vivo Anticancer Drug Screen. Data for tumor model P388 Leukemia (intraperitoneal) in CD2F1 (CDF1) mice
Settings: endpoint: median survival time, higher = longer survival
Summary of the method: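 Mice carrying the transplanted tumor received test compound or vehicle. Survival was recorded in each group, and the value is the treated-group measurement divided by that of the vehicle-treated control group.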

[1] = dose: 50.0 mg/kg/injection, schedule: Q01DX005 (ip), vehicle: saline with Tween-80
[2] = dose: 100.0 mg/kg/injection, schedule: Q01DX005 (ip), vehicle: saline with Tween-80
[3] = dose: 200.0 mg/kg/injection, schedule: Q01DX005 (ip), vehicle: saline with Tween-80
[4] = dose: 50.0 mg/kg/injection, schedule: Q01DX005 (ip), vehicle: Klucel (hydroxypropylcellulose) (HPC)
[5] = dose: 100.0 mg/kg/injection, schedule: Q01DX005 (ip), vehicle: Klucel (hydroxypropylcellulose) (HPC)
[6] = dose: 200.0 mg/kg/injection, schedule: Q01DX005 (ip), vehicle: Klucel (hydroxypropylcellulose) (HPC)
[7] = dose: 50.0 mg/kg/injection, schedule: Q01DX009 (ip), vehicle: Klucel (hydroxypropylcellulose) (HPC)
[8] = dose: 100.0 mg/kg/injection, schedule: Q01DX009 (ip), vehicle: Klucel (hydroxypropylcellulose) (HPC)
[9] = dose: 200.0 mg/kg/injection, schedule: Q01DX009 (ip), vehicle: Klucel (hydroxypropylcellulose) (HPC)
[10] = dose: 12.5 mg/kg/injection, schedule: Q01DX005 (ip), vehicle: saline with Tween-80
[11] = dose: 25.0 mg/kg/injection, schedule: Q01DX005 (ip), vehicle: saline with Tween-80

For `C=C(Cl)C(=NC(C)C)Nc1ccccc1C`, the T/C (dose: 0.79 mg/kg/injection, schedule: Q01DX005 (ip), vehicle: Klucel (hydroxypropylcellulose) (HPC)) was 112 % of control, the T/C (dose: 1.56 mg/kg/injection, schedule: Q01DX005 (ip), vehicle: Klucel (hydroxypropylcellulose) (HPC)) was 100 % of control and 107 % of control and the T/C (dose: 3.12 mg/kg/injection, schedule: Q01DX005 (ip), vehicle: Klucel (hydroxypropylcellulose) (HPC)) was 107 % of control and 110 % of control and 115 % of control. The T/C (dose: 6.25 mg/kg/injection, schedule: Q01DX005 (ip), vehicle: Klucel (hydroxypropylcellulose) (HPC)) was 118 % of control and 86 % of control and the T/C (dose: 12.5 mg/kg/injection, schedule: Q01DX005 (ip), vehicle: Klucel (hydroxypropylcellulose) (HPC)) was 102 % of control and 114 % of control.
In the case of `N#Cc1c(NC(=O)C(Cl)(Cl)Cl)sc2c1CCCC2`, the T/C [1] is reported as 105 % of control, the T/C [2] is reported as 110 % of control and the T/C [3] is reported as 117 % of control.
In the case of `CC(=O)N(C)c1ccc(N)c2c1C(=O)c1ccccc1C2=O`, the T/C [4] is reported as 106 % of control, the T/C [5] is reported as 94 % of control and the T/C [6] is reported as 106 % of control.
With `O=C1CCC(Cc2ccc(I)cc2)C(=O)N1` (stereo unspecified) the T/C (dose: 100.0 mg/kg/injection, schedule: Q01DX001 (ip), vehicle: saline with Tween-80) was 101 % of control, the T/C (dose: 200.0 mg/kg/injection, schedule: Q01DX001 (ip), vehicle: saline with Tween-80) was 100 % of control and the T/C (dose: 400.0 mg/kg/injection, schedule: Q01DX001 (ip), vehicle: saline with Tween-80) was 95 % of control.
`CCOC(=O)c1c(N)[nH]c(SSc2[nH]c(N)c(C(=O)OCC)c2C(=O)OCC)c1C(=O)OCC` was tested, and the T/C (dose: 75.0 mg/kg/injection, schedule: Q01DX009 (ip), vehicle: saline) was 118 % of control and the T/C (dose: 300.0 mg/kg/injection, schedule: Q01DX009 (ip), vehicle: saline) was 100 % of control.
`Cc1c(C)c(C)c(S(=O)(=O)NCCNS(=O)(=O)c2c(C)c(C)c(C)c(C)c2C)c(C)c1C` was tested, and the T/C [4] was 103 % of control, the T/C [5] was 94 % of control and the T/C [6] was 93 % of control.
With `C=CCC(CCC)(C(=O)Nc1ccc2nc(C)cc(N)c2c1)C(=O)Nc1ccc2nc(C)cc(N)c2c1` the T/C [1] was 100 % of control and the T/C [2] was 93 % of control.
`CC(=O)O[C@@H]1C[C@H](O)[C@@]23COC(O)[C@H]1[C@@H]2C[C@@H](O)[C@@]1(C)C2C(=O)C[C@@H](c4ccoc4)[C@]2(C)CC[C@@H]13` (stereo partly specified) was tested, and the T/C (dose: 2.4 mg/kg/injection, schedule: Q01DX009 (ip), vehicle: Klucel (hydroxypropylcellulose) (HPC)) was 99 % of control, the T/C (dose: 18.75 micrograms/kg/injection, schedule: Q01DX009 (ip), vehicle: Klucel (hydroxypropylcellulose) (HPC)) was 107 % of control and the T/C (dose: 37.5 micrograms/kg/injection, schedule: Q01DX009 (ip), vehicle: Klucel (hydroxypropylcellulose) (HPC)) was 117 % of control. The T/C (dose: 75.0 micrograms/kg/injection, schedule: Q01DX009 (ip), vehicle: Klucel (hydroxypropylcellulose) (HPC)) was 96 % of control and the T/C (dose: 150.0 micrograms/kg/injection, schedule: Q01DX009 (ip), vehicle: Klucel (hydroxypropylcellulose) (HPC)) was 101 % of control.
With `Cc1cccc(N=Cc2ccc(C=Nc3cccc(C)c3C)cc2)c1C` the T/C [7] was 92 % of control, the T/C [8] was 91 % of control and the T/C [9] was 86 % of control.
For `Cc1cc(C(C#N)c2ccc(Cl)cc2)c(Cl)cc1NC(=O)c1cc(I)cc(I)c1O` (stereo unspecified), the T/C (dose: 6.25 mg/kg/injection, schedule: Q01DX005 (ip), vehicle: saline with Tween-80) was 102 % of control, the T/C [10] was 94 % of control and the T/C [11] was 88 % of control.
In the case of `CC(C)NC(=O)OCc1c(COC(=O)NC(C)C)c(S(=O)c2ccccc2)n2c1CCC2` (stereo unspecified), the T/C (dose: 25.0 mg/kg/injection, schedule: Q01DX005 (ip), vehicle: distilled water + Tween-80) is reported as 113 % of control, the T/C (dose: 50.0 mg/kg/injection, schedule: Q01DX005 (ip), vehicle: distilled water + Tween-80) is reported as 110 % of control and the T/C (dose: 100.0 mg/kg/injection, schedule: Q01DX005 (ip), vehicle: distilled water + Tween-80) is reported as 113 % of control.
For `COc1ccc(/C=C\C(C)=N\NC(=S)Nc2ccc(Br)cc2)cc1`, the T/C [4] was 97 % of control, the T/C [5] was 96 % of control and the T/C [6] was 89 % of control.
In the case of `CC(C)C(=O)CC(c1ccccc1)P(=O)(c1ccccc1)c1ccccc1` (stereo unspecified), the T/C [4] is reported as 102 % of control, the T/C [5] is reported as 103 % of control and the T/C [6] is reported as 103 % of control.
`O=P(N1CC1)(N1CC1)N1CC2CCC(CC2)C1` was tested, and the T/C (dose: 3.13 mg/kg/injection, schedule: Q01DX009 (ip), vehicle: saline with Tween-80) was 109 % of control, the T/C (dose: 6.25 mg/kg/injection, schedule: Q01DX009 (ip), vehicle: saline with Tween-80) was 154 % of control and the T/C (dose: 12.5 mg/kg/injection, schedule: Q01DX009 (ip), vehicle: saline with Tween-80) was 204 % of control. The T/C (dose: 12.5 mg/kg/injection, schedule: Q01DX009 (ip), vehicle: saline) was 159 % of control, the T/C (dose: 12.5 mg/kg/injection, schedule: Q04DX003 (ip), vehicle: saline) was 120 % of control and the T/C (dose: 25.0 mg/kg/injection, schedule: Q01DX009 (ip), vehicle: saline) was 118 % of control. For the same compound, the T/C (dose: 25.0 mg/kg/injection, schedule: Q04DX003 (ip), vehicle: saline) was 166 % of control and the T/C (dose: 50.0 mg/kg/injection, schedule: Q04DX003 (ip), vehicle: saline) was 154 % of control.
`[Cl][Hg][Cl]` was tested, and the T/C (dose: 0.94 mg/kg/injection, schedule: Q01DX005 (ip), vehicle: saline) was 95 % of control and the T/C (dose: 1.88 mg/kg/injection, schedule: Q01DX005 (ip), vehicle: saline) was 101 % of control.
For `C=C(C[N+](C)(C)C)c1ccc([N+](=O)[O-])cc1`, the T/C [4] was 102 % of control.
In the case of `Cc1cc[n+](C2=C(Nc3ccccc3)C(=O)c3ccccc3C2=O)cc1`, the T/C [10] is reported as 106 % of control, the T/C [11] is reported as 114 % of control and the T/C [1] is reported as 116 % of control and 122 % of control. The T/C [2] was 118 % of control.
With `O=P(C/C=C/CO)(c1ccccc1)c1ccccc1` the T/C [1] was 98 % of control, the T/C [2] was 98 % of control and the T/C [3] was 103 % of control.
For `Cc1cc(N(C)C)ccc1/C=C/c1ccnc2ccccc12`, the T/C (dose: 25.0 mg/kg/injection, schedule: Q04DX002 (ip), vehicle: saline with Tween-80) was 109 % of control, the T/C (dose: 50.0 mg/kg/injection, schedule: Q04DX002 (ip), vehicle: saline with Tween-80) was 118 % of control and the T/C (dose: 100.0 mg/kg/injection, schedule: Q04DX002 (ip), vehicle: saline with Tween-80) was 113 % of control.
With `Cc1ccc(NC(=S)NCC2CCCO2)cc1C` (stereo unspecified) the T/C [7] was 102 % of control and 98 % of control, the T/C [8] was 91 % of control and the T/C [9] was 92 % of control and 93 % of control and 97 % of control.
With `Fc1ccc(N2C(c3ccccc3)=N[C@@H](N3CCCCC3)[C@@H]2N2CCCCC2)cc1` the T/C [4] was 102 % of control, the T/C [5] was 99 % of control and the T/C [6] was 100 % of control.
With `CCCC(C(CC)CNC(=O)Nc1cccc2ccccc12)N(C)C(=O)Nc1cccc2ccccc12` (stereo unspecified) the T/C (dose: 50.0 mg/kg/injection, schedule: Q01DX009 (ip), vehicle: saline with Tween-80) was 93 % of control, the T/C (dose: 100.0 mg/kg/injection, schedule: Q01DX009 (ip), vehicle: saline with Tween-80) was 92 % of control and the T/C (dose: 200.0 mg/kg/injection, schedule: Q01DX009 (ip), vehicle: saline with Tween-80) was 94 % of control. The T/C (dose: 400.0 mg/kg/injection, schedule: Q01DX009 (ip), vehicle: saline with Tween-80) was 99 % of control.
In the case of `COc1ccc(Cl)c2c1C(=O)C1C(=O)C3C(O)=C(C(=O)NC(C)(C)C)C(=O)C(NC(=O)c4ccccc4)C3CC1C2` (stereo unspecified), the T/C (dose: 60.0 mg/kg/injection, schedule: Q01DX005 (ip), vehicle: Klucel (hydroxypropylcellulose) (HPC)) is reported as 97 % of control, the T/C (dose: 120.0 mg/kg/injection, schedule: Q01DX005 (ip), vehicle: Klucel (hydroxypropylcellulose) (HPC)) is reported as 116 % of control and the T/C (dose: 240.0 mg/kg/injection, schedule: Q01DX005 (ip), vehicle: Klucel (hydroxypropylcellulose) (HPC)) is reported as 190 % of control.
With `[Mn+2].[Mn+2].c1ccc2c(c1)-c1nc-2nc2[n-]c(nc3nc(nc4[n-]c(n1)c1ccccc41)-c1ccccc1-3)c1cc3c4nc5nc(nc6[n-]c(nc7nc(nc([n-]4)c3cc21)-c1ccccc1-7)c1ccccc61)-c1ccccc1-5` the T/C (dose: 60.0 mg/kg/injection, schedule: Q01DX005 (ip), vehicle: saline with Tween-80) was 96 % of control, the T/C (dose: 120.0 mg/kg/injection, schedule: Q01DX005 (ip), vehicle: saline with Tween-80) was 99 % of control and the T/C (dose: 240.0 mg/kg/injection, schedule: Q01DX005 (ip), vehicle: saline with Tween-80) was 106 % of control.
For `COc1ccccc1Nc1ncnc2sc3c(c12)CCCC3`, the T/C [1] was 101 % of control, the T/C [2] was 95 % of control and the T/C [3] was 101 % of control.
